US9770452B2, “Quinoxaline derivatives as GPR6 modulators” (Takeda Pharmaceutical Company Limited, priority 2012, dated 2017)
Structures can show the parent of a compound that is named as a salt.

The compounds below were run against T1, GPR6 receptor (Homo sapiens, UniProt P46095) (assay: Inhibition of cAMP Activity of GPR6 In Vitro Assay (CHO-K1 cells, HTRF cAMP)). Settings: not given.
T1 construct: expressed in transfected cells
T1 sequence (P46095 whole entry): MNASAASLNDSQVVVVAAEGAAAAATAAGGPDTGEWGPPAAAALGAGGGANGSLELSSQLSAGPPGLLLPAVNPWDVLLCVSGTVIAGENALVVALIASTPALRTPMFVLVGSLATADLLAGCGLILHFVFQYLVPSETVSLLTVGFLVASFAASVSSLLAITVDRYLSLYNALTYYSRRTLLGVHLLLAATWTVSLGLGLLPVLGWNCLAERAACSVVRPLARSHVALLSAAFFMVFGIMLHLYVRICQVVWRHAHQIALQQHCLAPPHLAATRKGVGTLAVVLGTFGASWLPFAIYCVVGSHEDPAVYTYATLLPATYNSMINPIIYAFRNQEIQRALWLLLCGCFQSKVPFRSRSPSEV
Format: cell-based
Protocol: Inhibition of cAMP Activity of GPR6 In Vitro Assay
This cell based assay measures the ability of compounds to inhibit the constitutive cAMP activity of GPR6 receptor expressed in CHO-K1 cells. CHO cells were stably expressed with GPR6 receptor, whose expression is controlled by a tetracycline inducable element. The cells were cultured in medium containing F12K, 10% FBS, 1% Penn/Strep, 200 ug/mL Hygromycin. GPR6 receptor expression was induced for 20 hrs with 1 μg/ml doxycycline (sigma D9891) in growth media. After addition of doxycycline cells were plated at a density of 250-500 cells per well in half-volume black clear bottom plates (Costar) and place in an incubator (37°, 5% C(O)2) for 20 hours prior to cAMP assays.
Culture media was removed from cells and they were washed with 50 μL of Ringer's Buffer (MgCl2 0.047 mg/mL, NaH2PO4 0.18 mg/mL, Na2HPO4 0.1 mg/mL, KCl 0.34 mg/mL, NaHC(O)3 1.26 mg/mL, D-glucose 1.8 mg/mL, NaCl 7 mg/mL; pH=7.4). Compounds suspended in DMSO were diluted in Ringer's Buffer containing 0.5% fatty acid free BSA and incubated on cells for 45 min at […] and 5% C(O)2. After incubation cells were incubated for 10 min at room temp with Eu-cAMP tracer solution from a Perkin Elmer Lance HTRF UltracAMP assay kit (TRF0264). Then ULight™-anti-cAMP solution from the Lance HTRF kit was added and incubated on a shaker at room temp for 1 hour prior to HTRF detection in a BMG PolarStar Omega.
IC50 curves were generated with a four-parameter logistic equation using GraphPad Prism 5.03.
Compound `COc1ccc(OC2CCN(c3nc4c(N5CCOCC5)nccc4nc3NC3CC3)CC2)c(F)c1` [Cpd 606, N-cyclopropyl-3-(4-(2-fluoro-4-methoxyphenoxy)piperidin-1-yl)-5-morpholinopyrido[3,4-b]pyrazin-2-amine, 2,2,2-trifluoroacetic acid salt] has an IC50 of 717 nM.

Same assay, conditions: compounds of Compound Table 1; inhibition of constitutive cAMP activity of GPR6 expressed in CHO-K1 cells; approximate IC50; read-out: IC50
`N#Cc1ccc(C(=O)N2CCN(c3nc4ccccc4nc3NC3CC3)CC2)cc1` [Cpd 75, 4-(4-(3-(cyclopropylamino)quinoxalin-2-yl)piperazine-1-carbonyl)benzonitrile, 2,2,2-trifluoroacetic acid salt] showed an IC50 of 21800 nM. `c1ccc2nc(N3CCN(Cc4ccncc4)CC3)c(NC3CC3)nc2c1` [Cpd 17, N-cyclopropyl-3-(4-(pyridin-4-ylmethyl)piperazin-1-yl)quinoxalin-2-amine, 2,2,2-trifluoroacetic acid salt] gave an IC50 of 25900 nM. “3-(4-(2,5-dichlorobenzyl)piperazin-1-yl)-N-(tetrahydro-2H-pyran-4-yl)quinoxalin-2-amine, 2,2,2-trifluoroacetic acid salt [Cpd 171]” was tested, and the IC50 was 1570 nM. With “3-(4-(2-fluoro-4-methoxyphenoxy)piperidin-1-yl)-N-isopropylpyrido[3,4-b]pyrazin-2-amine, 2,2,2-trifluoroacetic acid salt [Cpd 617]” the IC50 was 54 nM. In the case of “(1-(2-(cyclopropylamino)pyrido[3,4-b]pyrazin-3-yl)piperidin-4-yl)(3-methoxyphenyl)methanone [Cpd 564]”, the IC50 is reported as 11000 nM. With “3-(4-(2,4-difluorobenzyl)piperazin-1-yl)-N-isopropylpyrazino[2,3-d]pyridazin-2-amine 2,2,2-trifluoroacetate [Cpd 650]” the IC50 was 1000 nM. “N-cyclopropyl-3-(4-((2,5-difluorophenyl)difluoromethyl)piperidin-1-yl)pyrido[3,4-b]pyrazin-2-amine [Cpd 540]” was tested, and the IC50 was 46 nM. Compound “6-bromo-N-cyclopropyl-3-(4-((2,5-difluorophenyl)fluoromethyl)piperidin-1-yl)quinoxalin-2-amine, 2,2,2-trifluoroacetic acid salt [Cpd 500]” has an IC50 of 160 nM. For “(1-(2-(cyclopropylamino)pyrido[3,4-b]pyrazin-3-yl)piperidin-4-yl)(o-tolyl)methanone, 2,2,2-trifluoroacetic acid salt [Cpd 565]”, the IC50 was 15400 nM. “(R)-2-((3-(4-(2,5-dichlorobenzyl)piperazin-1-yl)quinoxalin-2-yl)amino)propan-1-ol, 2,2,2-trifluoroacetic acid salt [Cpd 172]” gave an IC50 of 2340 nM. In the case of “N-cyclopropyl-3-(4-(2-fluoro-4-(methylthio)phenoxy)piperidin-1-yl)pyrazino[2,3-d]pyridazin-2-amine, 2,2,2-trifluoroacetic acid salt [Cpd 618]”, the IC50 is reported as 12 nM. `Cc1cc(C(=O)N2CCN(c3nc4ccccc4nc3NC3CC3)CC2)no1` [Cpd 98, (4-(3-(cyclopropylamino)quinoxalin-2-yl)piperazin-1-yl)(5-methylisoxazol-3-yl)methanone] gave an IC50 of 3210 nM. “2-(4-(2,4-difluorophenoxy)piperidin-1-yl)-N-isopropylpyrido[3,4-b]pyrazin-3-amine [Cpd 656]” gave an IC50 of 14 nM. `Clc1cccc(CN2CCN(c3nc4ccccc4nc3Nc3ccc(Br)cc3)CC2)c1` [Cpd 21, N-(4-bromophenyl)-3-(4-(3-chlorobenzyl)piperazin-1-yl)quinoxalin-2-amine, 2,2,2-trifluoroacetic acid salt] showed an IC50 of 3030 nM. “(1-(2-(cyclopropylamino)pyrido[3,4-b]pyrazin-3-yl)piperidin-4-yl)(thiophen-3-yl)methanone, 2,2,2-trifluoroacetic acid salt [Cpd 584]” gave an IC50 of 1740 nM. With `N#Cc1ccc2nc(NC3CC3)c(N3CCC(C(F)c4cc(F)ccc4F)CC3)nc2c1` (stereo not drawn) [Cpd 471] the IC50 was 75 nM. Work on `O=C(c1ccc(F)c(Br)c1)N1CCN(c2nc3ccccc3nc2NC2CC2)CC1` [Cpd 89, (3-bromo-4-fluorophenyl)(4-(3-(cyclopropylamino)quinoxalin-2-yl)piperazin-1-yl)methanone, 2,2,2-trifluoroacetic acid salt] yielded an IC50 of 4780 nM. “2-(cyclopropylamino)-3-(4-(2-fluoro-4-methoxyphenoxy)piperidin-1-yl)pyrido[3,4-b]pyrazine-5-carbonitrile, 2,2,2-trifluoroacetic acid salt [Cpd 605]” gave an IC50 of 36 nM. Work on “2-(cyclobutylamino)-3-(4-(2,5-dichlorobenzyl)piperazin-1-yl)quinoxaline-6-carbonitrile, 2,2,2-trifluoroacetic acid salt [Cpd 336]” yielded an IC50 of 960 nM. “3-(4-(3-bromo-4-fluorobenzoyl)piperazin-1-yl)-2-(cyclopropylamino)quinoxaline-6-carbonitrile, 2,2,2-trifluoroacetic acid salt [Cpd 256]” showed an IC50 of 380 nM. With “2-(cyclopropylamino)-3-(4-(2,4-difluorobenzyl)piperazin-1-yl)pyrido[3,4-b]pyrazine-5-carbonitrile, 2,2,2-trifluoroacetic acid salt [Cpd 612]” the IC50 was 114 nM. “N-cyclopropyl-3-(4-(4-ethoxyphenoxy)piperidin-1-yl)pyrido[3,4-b]pyrazin-2-amine, 2,2,2-trifluoroacetic acid salt [Cpd 601]” showed an IC50 of 22 nM. Compound “(2-chlorophenyl)(1-(2-(cyclopropylamino)pyrido[3,4-b]pyrazin-3-yl)piperidin-4-yl)methanone, 2,2,2-trifluoroacetic acid salt [Cpd 557]” has an IC50 of 1920 nM. In the case of “7-chloro-N-cyclopropyl-3-(4-((2,4-difluorophenyl)fluoromethyl)piperidin-1-yl)pyrido[3,4-b]pyrazin-2-amine, 2,2,2-trifluoroacetic acid salt [Cpd 489]”, the IC50 is reported as 7 nM. With `c1ccc(CN2CCN(c3nc4ccccc4nc3NC3CC3)CC2)nc1` [Cpd 20, N-cyclopropyl-3-(4-(pyridin-2-ylmethyl)piperazin-1-yl)quinoxalin-2-amine, 22,2,2-trifluoroacetic acid salt] the IC50 was 69200 nM. Compound “1-(4-((1-(2-(cyclopropylamino)pyrido[3,4-b]pyrazin-3-yl)piperidin-4-yl)oxy)phenyl)ethanone, 2,2,2-trifluoroacetic acid salt [Cpd 582]” has an IC50 of 7 nM. For “4-((1-(2-(cyclopropylamino)pyrido[3,4-b]pyrazin-3-yl)piperidin-4-yl)oxy)-3-fluorophenol, 2,2,2-trifluoroacetic acid salt [Cpd 615]”, the IC50 was 88 nM. With “N-cyclopropyl-3-(4-((2,4-difluorophenyl)fluoromethyl)piperidin-1-yl)-7-methylpyrido[3,4-b]pyrazin-2-amine, 2,2,2-trifluoroacetic acid salt [Cpd 488]” the IC50 was 29 nM. “mixture of N-cyclopropyl-3-(4-(2,5-dichlorobenzyl)piperazin-1-yl)-7-methoxyquinoxalin-2-amine, 2,2,2-trifluoroacetic acid salt and N-cyclopropyl-3-(4-(2,5-dichlorobenzyl)piperazin-1-yl)-7-methoxyquinoxalin-2-amine, 2,2,2-trifluoroacetic acid salt [Cpd 47]” was tested, and the IC50 was 3360 nM. “(R)-azetidin-1-yl(2-(cyclopropylamino)-3-(4-((2,4-difluorophenyl)fluoromethyl)piperidin-1-yl)pyrido[3,4-b]pyrazin-7-yl)methanone [Cpd 589]” gave an IC50 of 69 nM. For “(1-(2-(cyclopropylamino)pyrido[3,4-b]pyrazin-3-yl)piperidin-4-yl)(thiophen-2-yl)methanone, 2,2,2-trifluoroacetic acid salt [Cpd 573]”, the IC50 was 2800 nM. Work on “N-cyclopropyl-3-(4-(3-isopropylbenzyl)piperazin-1-yl)quinoxalin-2-amine, 2,2,2-trifluoroacetic acid salt [Cpd 211]” yielded an IC50 of 9440 nM. “(2-bromophenyl)(1-(2-(cyclopropylamino)pyrido[3,4-b]pyrazin-3-yl)piperidin-4-yl)methanone, 2,2,2-trifluoroacetic acid salt [Cpd 585]” gave an IC50 of 6040 nM. “(4-chloro-2-fluorophenyl)(4-(2-((2,2-difluoroethyl)amino)pyrido[3,4-b]pyrazin-3-yl)piperazin-1-yl)methanone, 2,2,2-trifluoroacetic acid salt [Cpd 369]” showed an IC50 of 400 nM. With “N-cyclopropyl-3-(4-(2-methoxyphenoxy)piperidin-1-yl)pyrido[3,4-b]pyrazin-2-amine, 2,2,2-trifluoroacetic acid salt [Cpd 559]” the IC50 was 67 nM. Work on “3-(4-((4-bromophenyl)sulfonyl)piperazin-1-yl)-2-(cyclopropylamino)quinoxaline-6-carbonitrile [Cpd 251]” yielded an IC50 of 4340 nM. For “7-chloro-N-cyclopropyl-3-(4-(2,4-difluorobenzyl)piperidin-1-yl)pyrido[3,4-b]pyrazin-2-amine [Cpd 592]”, the IC50 was 26 nM. For `Clc1cccc(CN2CCN(c3nc4cccnc4nc3Nc3ccccc3)CC2)c1` [Cpd 22, 2-(4-(3-chlorobenzyl)piperazin-1-yl)-N-phenylpyrido[2,3-b]pyrazin-3-amine, 2,2,2-trifluoroacetic acid salt], the IC50 was 7670 nM.
